Each structure is given as a SMILES string.

Experimental findings from patent publication EP0908457B1, “3-(1,2-benzisothiazol- and isoxazol-5-Y1)-2,4(1H,3H)-pyrimidinedione or thione and 3-(1,2-benzisothiazol- and isoxazol-5-y1)-4(3H)-pyrimidinone or thione herbicidal agents” (BASF AKTIENGESELLSCHAFT, priority 1997, dated 1999) are described below.

In data set [1] the test system is Echinochloa oryzoides (Ard.) Fritsch. Put plainly: Preemergence weed control under flooded paddy conditions, ECHORC (Watergrass (Calif.)). On herbicidal effect rating, ECHORC: meaning of each grade not given here. The class given is in vivo. The conditions noted are these: flooded paddy; for ECHORC: preemergence weeds, herbicidal effect rating 0-9, three to four weeks after treatment.
The subject of data set [2] is Oryza sativa, (L.) Tebonnet. Put plainly: Rice tolerance to post-transplant applications under flooded paddy conditions (Example 187), ORYSAT (Rice, Tebonnet). As to conditions: for ORYSAT: herbicidal effect rating 0-9, three to four weeks after treatment.
The next data set deals with Cyperus iria. Put plainly: Preemergence weed control under flooded paddy conditions, CYPIR (Rice Flatsedge). On herbicidal effect rating, CYPIR: meaning of each grade not given here. The class given is in vivo. The conditions noted are these: flooded paddy; for CYPIR: preemergence weeds, herbicidal effect rating 0-9, three to four weeks after treatment.
For data set [3], the system named is Monochoria vaginalis, Presl. Put plainly: Preemergence weed control under flooded paddy conditions, MOOVA (Monochoria). On herbicidal effect rating, MOOVA: meaning of each grade not given here. In kind it is in vivo. As to conditions: flooded paddy; for MOOVA: preemergence weeds, herbicidal effect rating 0-9, three to four weeks after treatment.
In the next data set the test system is Sagittaria pygmaea, L. Put plainly: Preemergence weed control under flooded paddy conditions, SAGPY (Arrowhead (Pygmaea)). On herbicidal effect rating, SAGPY: meaning of each grade not given here. The class given is in vivo. As to conditions: flooded paddy; for SAGPY: preemergence weeds, herbicidal effect rating 0-9, three to four weeks after treatment.
Data set [4] has as its system Cyperus serotinus, Rottb. Put plainly: Preemergence weed control under flooded paddy conditions, CYPSE (Flatsedge). On herbicidal effect rating, CYPSE: meaning of each grade not given here. The class given is in vivo. As to conditions: for CYPSE: preemergence weeds, herbicidal effect rating 0-9, three to four weeks after treatment.
The mark [5] stands for this setting: 0.0320 kg/ha, preemergence, rated three to four weeks after treatment.
Setting [6] is: 0.0313 kg/ha, preemergence, rated three to four weeks after treatment.
Setting [7] is: 0.0625 kg/ha, preemergence, rated three to four weeks after treatment.
The mark [8] stands for this setting: 0.1250 kg/ha, preemergence, rated three to four weeks after treatment.
Setting [9] is: 0.2500 kg/ha, preemergence, rated three to four weeks after treatment.

On to `COC(=O)COc1ccc(I)cc1-c1nsc2ccc(-n3c(=O)cc(C(F)(F)F)n(C)c3=O)cc12` [Example 459, Acetic acid, {2-{5-[3,6-dihydro-3-methyl-2,6-dioxo-4-(trifluoromethyl)-1(2H)-pyrimidinyl]-1,2-benzisothiazol-3-yl}-4-iodophenoxy}-, methyl ester], for which the ECHORC herbicidal rating in data set [1] (setting [5]) was 7.0. The ECHORC in data set [1] (0.0620 kg/ha) was found to be 7.0; in data set [1] (0.1250 kg/ha) it was 9.0; in data set [1] (0.2500 kg/ha) it was 9.0. Further, in data set [2] (0.0320 kg/ha, rated three to four weeks after treatment), the “ORYSAT herbicidal rating (rice tolerance)” value turned out to be 2.0. Further, the ORYSAT was 4.0 in data set [2] (0.0620 kg/ha), 5.0 in data set [2] (0.1250 kg/ha) and 5.0 in data set [2] (0.2500 kg/ha). The compound further gave a CYPIR herbicidal rating in the data set with Cyperus iria (setting [5]) of 0.0. Moreover, the CYPIR in the data set on Cyperus iria (0.0620 kg/ha) worked out at 2.0; in the data set with Cyperus iria (0.1250 kg/ha) it was 4.0; in the data set with Cyperus iria (0.2500 kg/ha) it was 4.0. In addition, the MOOVA herbicidal rating in data set [3] (setting [5]) came out at 3.0. In addition, the MOOVA is recorded as 5.0 in data set [3] (0.0620 kg/ha), 7.0 in data set [3] (0.1250 kg/ha) and 7.0 in data set [3] (0.2500 kg/ha). The SAGPY herbicidal rating in the data set with Sagittaria pygmaea, L. (setting [5]) is 0.0. In addition, the SAGPY was determined as 0.0 in the data set on Sagittaria pygmaea, L. (0.0620 kg/ha); 0.0 in the data set with Sagittaria pygmaea, L. (0.1250 kg/ha); 0.0 in the data set on Sagittaria pygmaea, L. (0.2500 kg/ha). The same compound came in with a CYPSE herbicidal rating in data set [4] (setting [5]) of 0.0. Also, the CYPSE stood at 0.0 in data set [4] (0.0620 kg/ha), 0.0 in data set [4] (0.1250 kg/ha) and 3.0 in data set [4] (0.2500 kg/ha).

In the case of `COc1ccc(C)cc1-c1nsc2ccc(-n3c(=O)cc(C)n(C)c3=O)cc12` [Example 24, 3-[3-(6-Methoxy-m-tolyl)-1,2-benzisothiazol-5-yl]-1,6-dimethyl-2,4(1H,3H)-pyrimidinedione], the “herbicidal effect rating, ECHORC” value in data set [1] (setting [6]) is listed as 0.0; in data set [1] (setting [7]), 0.0; in data set [1] (setting [8]), 2.0; in data set [1] (setting [9]), 7.0. Also, the “herbicidal effect rating, ORYSAT (rice tolerance)” value in data set [2] (0.0313 kg/ha, rated three to four weeks after treatment) amounted to 2.0; in data set [2] (0.0625 kg/ha, rated three to four weeks after treatment), 2.0; in data set [2] (0.1250 kg/ha, rated three to four weeks after treatment), 3.0; in data set [2] (0.2500 kg/ha, rated three to four weeks after treatment), 4.0. For the same compound, the “herbicidal effect rating, CYPIR” value in the data set with Cyperus iria (setting [6]) came out at 0.0; in the data set on Cyperus iria (setting [7]), 2.0; with Cyperus iria (setting [8]), 6.0; with Cyperus iria (setting [9]), 8.0. For the same compound, the “herbicidal effect rating, MOOVA” value in data set [3] (setting [6]) was found to be 4.0; in data set [3] (setting [7]), 8.0; in data set [3] (setting [8]), 9.0; in data set [3] (setting [9]), 9.0. For the same compound, the “herbicidal effect rating, SAGPY” value with Sagittaria pygmaea, L. (setting [6]) is given as 0.0; in the data set with Sagittaria pygmaea, L. (setting [7]), 0.0; in the data set on Sagittaria pygmaea, L. (setting [8]) it was 0.0; in the data set with Sagittaria pygmaea, L. (setting [9]), 0.0. The “herbicidal effect rating, CYPSE” value turned out to be 0.0 in data set [4] (setting [6]), 0.0 in data set [4] (setting [7]), 1.0 in data set [4] (setting [8]) and 4.0 in data set [4] (setting [9]).
